Measurements from patent US10927105B1 (Lundbeck La Jolla Research Center, Inc., priority 2017, dated 2021).

These compounds were tested against MAGL (Homo sapiens (Human), UniProt Q99685) (assay: In vitro competitive activity-based protein profiling (human prefrontal cortex membrane fractions, FP-Rh probe), MAGL band). Settings: read-out: MAGL IC50 (μM) (human); human prefrontal cortex membrane fractions.
MAGL, sequence (Q99685 whole entry): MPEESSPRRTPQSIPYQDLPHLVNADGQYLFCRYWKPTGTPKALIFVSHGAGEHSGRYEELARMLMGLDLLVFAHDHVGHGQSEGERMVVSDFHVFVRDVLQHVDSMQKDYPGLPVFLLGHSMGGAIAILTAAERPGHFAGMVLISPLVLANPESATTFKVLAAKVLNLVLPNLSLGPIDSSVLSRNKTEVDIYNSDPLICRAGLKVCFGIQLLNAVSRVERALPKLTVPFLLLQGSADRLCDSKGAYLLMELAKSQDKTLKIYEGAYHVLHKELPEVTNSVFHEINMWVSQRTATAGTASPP
Procedure: Biological Evaluation In Vitro Competitive Activity-Based Protein Profiling.
Proteomes (mouse brain membrane fraction for mouse assays; human prefrontal cortex membrane fractions for human assays) (50 mL, 1.0 mg/mL total protein concentration) were preincubated with varying concentrations of inhibitors at 37° C. After 30 min, FP-Rh (1.0 mL, 50 mM in DMSO) was added and the mixture was incubated for another 30 min at 37° C. Reactions were quenched with SDS loading buffer (15 μL-4×) and run on SDS-PAGE.

Structure (SMILES) | IC50
C[C@@H]1CN(Cc2cc(F)cc(Oc3ccc(Cl)cc3)c2)CCN1C(=O)n1ccc(C(=O)O)n1 [Example 348, (R)-1-(4-(3-(4-chlorophenoxy)-5-fluorobenzyl)-2-methylpiperazine-1-carbonyl)-1H-pyrazole-3-carboxylic acid] | < 0.1 µM
C[C@H]1CN(Cc2cccc(Oc3ccc(Cl)cc3)c2)CCN1C(=O)n1ccc(C(=O)O)n1 [Example 311, (S)-1-(4-(3-(4-chlorophenoxy)-benzyl)-2-methylpiperazine-1-carbonyl)-1H-pyrazole-3-carboxylic acid] | < 0.1 µM
O=C(O)c1ccn(C(=O)N2C[C@H]3C[C@H](OCc4cccc(-c5ccccc5)c4)C[C@H]3C2)n1 [Example 278, 1-(trans-5-([1,1′-biphenyl]-3-ylmethoxy)-octahydrocyclopenta-[c]pyrrole-2-carbonyl)-1H-pyrazole-3-carboxylic acid] | < 0.1 µM
O=C(O)c1ccn(C(=O)N2CCN(Cc3ccc(N4CCCC4)cc3C(F)(F)F)CC2)n1 [Example 167, 1-(4-(4-(pyrrolidin-1-yl)-2-(trifluoromethyl)-benzyl)piperazine-1-carbonyl)-1H-pyrazole-3-carboxylic acid] | < 0.1 µM
C[C@H]1CC[C@H](C)N1c1cc(C(F)(F)F)ccc1CN1CCN(C(=O)n2ccc(C(=O)O)n2)CC1 [Example 360, 1-(4-(2-((2S,5S)-2,5-dimethylpyrrolidin-1-yl)-4-(trifluoromethyl)-benzyl)piperazine-1-carbonyl)-1H-pyrazole-3-carboxylic acid] | < 0.1 µM
O=C(O)c1ccn(C(=O)N2CCN(Cc3cccc(C(F)(F)F)c3N3CCOCC3)CC2)n1 [Example 453, 1-(4-(2-morpholino-3-(trifluoromethyl)-benzyl)-piperazine-1-carbonyl)-1H-pyrazole-3-carboxylic acid] | < 0.1 µM
O=C(O)c1nn(C(=O)N2CCN(Cc3cc(Cl)cc(-c4cncnc4)c3)CC2)cc1Cl [Example 323, 4-chloro-1-(4-(3-chloro-5-(pyrimidin-5-yl)benzyl)-piperazine-1-carbonyl)-1H-pyrazole-3-carboxylic acid] | < 0.1 µM
C[C@H]1CN(Cc2cc(Cl)cc(C(F)(F)F)c2)CCN1C(=O)n1ccc(C(N)=O)n1 [Example 271, (S)-1-(4-(3-chloro-5-(trifluoromethyl)-benzyl)-2-methylpiperazine-1-carbonyl)-1H-pyrazole-3-carboxamide] | < 0.1 µM
Cc1cn(C(=O)N2CCN(Cc3cccc(Oc4ccc(Cl)cc4)c3)CC2)nc1C(=O)O [Example 129, 1-(4-(3-(4-chlorophenoxy)-benzyl)-piperazine-1-carbonyl)-4-methyl-1H-pyrazole-3-carboxylic acid] | < 0.1 µM
O=C(O)c1ccn(C(=O)N2CCN(Cc3cc(Cl)cc(Oc4ccc(Cl)cc4)c3)CC2)n1 [Example 19, 1-(4-(3-Chloro-5-(4-chlorophenoxy)benzyl)piperazine-1-carbonyl)-1H-pyrazole-3-carboxylic Acid] | < 0.1 µM
O=C(O)c1ccn(C(=O)N2C[C@H]3C[C@H](Oc4cc(F)cc(Cl)c4)C[C@H]3C2)n1 [Example 222, 1-(trans-5-(3-chloro-5-fluorophenoxy)-octahydrocyclopenta-[c]pyrrole-2-carbonyl)-1H-pyrazole-3-carboxylic acid] | < 0.1 µM
CN(Cc1cc(Cl)ccc1C(F)(F)F)CC1CCN(C(=O)n2cc(Cl)c(C(=O)O)n2)CC1 [Example 54, 4-chloro-1-(4-(((5-chloro-2-(trifluoromethyl)-benzyl)(methyl)-amino)-methyl)piperidine-1-carbonyl)-1H-pyrazole-3-carboxylic acid] | < 0.1 µM
O=C(O)c1ccn(C(=O)N2CCC(OCc3cc(Cl)cc(C(F)(F)F)c3)CC2)n1 [Example 275, 1-(4-((3-chloro-5-(trifluoromethyl)-benzyl)oxy)-piperidine-1-carbonyl)-1H-pyrazole-3-carboxylic acid] | < 0.1 µM
